“And” between values parts separate entries of the source, which are not always exact repeats. Equal values may be shown once. Read-outs that look alike come from different tables or passages of the source.
Columns and labels:
Assay in all cases: Chemosensitivity, 96 h continuous exposure, MTT assay;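 for SI (NPI): adult human brain neural progenitor non-cancer cells from an epilepsy surgery patient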;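 for Selectivity Index using the NPI non-cancer cell line: adult human brain neural progenitor non-cancer cells from an epilepsy surgery patient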
Format in all cases: cell-based, human
[1] = tested on: A549;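 for SI (NPI): adult human brain neural progenitor non-cancer cells from an epilepsy surgery patient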;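 for Selectivity Index using the NPI non-cancer cell line: adult human brain neural progenitor non-cancer cells from an epilepsy surgery patient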
Summary of the method: (§1)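 Cells seeded at 2 × 10^3/well (GBM1 3 × 10^3/well) and left overnight at 37 °C, then exposed continuously for 96 h to a range of compound concentrations (final DMSO 0.2%). Viability read by MTT, absorbance at 540 nm; IC50 taken from dose-response curves as concentration reducing cell growth by 50%.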

[2] = tested on: BxPC3
Summary of the method: as §1

[3] = tested on: DLD-1
Summary of the method: as §1

[4] = tested on: HCT116 p53+/+
Summary of the method: as §1

[5] = tested on: HCT116 p53-/-
Summary of the method: as §1

[6] = tested on: MCF10A non-cancer cells
Summary of the method: as §1

[7] = tested on: MiaPaCa2
Summary of the method: as §1

## [Cu+2].[Cu+2].[Cu+2].c1ccc(-c2csc(NCCN(CCNc3nc(-c4ccccn4)cs3)CCNc3nc(-c4ccccn4)cs3)n2)nc1.c1ccc(-c2csc(NCCN(CCNc3nc(-c4ccccn4)cs3)CCNc3nc(-c4ccccn4)cs3)n2)nc1 [[L2Cu3]6+]
[1]; A549, 96 h, MTT, individual run, read-out: IC50 values for each replicate
  IC50: 256 nM and 189 nM and 254 nM
[1]; A549, 96 h, MTT, mean of at least 3 independent experiments, read-out: Mean IC50
  IC50: 233 nM
[1]; A549, mean of replicates, read-out: Mean IC50
  IC50: 233 nM
[1]; A549, read-out: Mean IC50 values
  IC50: 233 nM
[1]; IC50 ARPE-19 / IC50 A549
  Selectivity index (ARPE19): 225.88
[1]; IC50 MCF10A / IC50 A549
  Selectivity index (MCF10A): 207.12
[1]; IC50 NP1 / IC50 A549
  Selectivity Index using the NPI non-cancer cell line: 184.94
[1]; mean IC50 ARPE-19 / mean IC50 A549
  SI (ARPE19): 225.88
[1]; mean IC50 MCF10A / mean IC50 A549
  SI (MCF10A): 207.12
[1]; mean IC50 NP1 / mean IC50 A549
  SI (NPI): 184.94
[1]; ratio of IC50, A549
  Relative potency (+ anion to no anion), Ratio + anion:no anion: 1
[1]; ratio of SI (ARPE-19), A549
  Selectivity indices relative to ARPE-19, Ratio + anion:no anion: 1
[1]; ratio of SI (MCF 10A), A549
  Selectivity indices relative to MCF10A, Ratio + anion:no anion: 1
[2]; BXPC3, mean of replicates, read-out: Mean IC50
  IC50: 293 nM
[2]; BXPC3, read-out: Mean IC50 values
  IC50: 293 nM
[2]; BxPC3, 96 h, MTT, individual run, read-out: IC50 values for each replicate
  IC50: 226 nM and 267 nM and 443 nM and 237 nM
[2]; BxPC3, 96 h, MTT, mean of at least 3 independent experiments, read-out: Mean IC50
  IC50: 293 nM
[2]; IC50 ARPE-19 / IC50 BXPC3
  Selectivity index (ARPE19): 179.62
[2]; IC50 MCF10A / IC50 BXPC3
  Selectivity index (MCF10A): 164.71
[2]; IC50 NP1 / IC50 BXPC3
  Selectivity Index using the NPI non-cancer cell line: 147.06
[2]; mean IC50 ARPE-19 / mean IC50 BxPC3
  SI (ARPE19): 179.62
[2]; mean IC50 MCF10A / mean IC50 BxPC3
  SI (MCF10A): 164.71
[2]; mean IC50 NP1 / mean IC50 BxPC3
  SI (NPI): 147.06
[2]; ratio of IC50, BXPC3
  Relative potency (+ anion to no anion), Ratio + anion:no anion: 1
[2]; ratio of SI (ARPE-19), BXPC3
  Selectivity indices relative to ARPE-19, Ratio + anion:no anion: 1
[2]; ratio of SI (MCF 10A), BXPC3
  Selectivity indices relative to MCF10A, Ratio + anion:no anion: 1
[3]; DLD-1, 96 h, MTT, mean of at least 3 independent experiments, read-out: Mean IC50
  IC50: 132 nM
[3]; DLD-1, mean of replicates, read-out: Mean IC50
  IC50: 132 nM
[3]; DLD-1, read-out: Mean IC50 values
  IC50: 132 nM
[3]; IC50 ARPE-19 / IC50 DLD-1
  Selectivity index (ARPE19): 398.71
[3]; IC50 MCF10A / IC50 DLD-1
  Selectivity index (MCF10A): 365.61
[3]; IC50 NP1 / IC50 DLD-1
  Selectivity Index using the NPI non-cancer cell line: 326.44
[3]; mean IC50 ARPE-19 / mean IC50 DLD-1
  SI (ARPE19): 398.71
[3]; mean IC50 MCF10A / mean IC50 DLD-1
  SI (MCF10A): 365.61
[3]; mean IC50 NP1 / mean IC50 DLD-1
  SI (NPI): 326.44
[3]; ratio of IC50, DLD-1
  Relative potency (+ anion to no anion), Ratio + anion:no anion: 1
[3]; ratio of SI (ARPE-19), DLD-1
  Selectivity indices relative to ARPE-19, Ratio + anion:no anion: 1
[3]; ratio of SI (MCF 10A), DLD-1
  Selectivity indices relative to MCF10A, Ratio + anion:no anion: 1
[4]; HCT116 p53+/+, 96 h, MTT, individual run, read-out: IC50 values for each replicate
  IC50: 240 nM and 533 nM and 528 nM and 499 nM and 677 nM
[4]; HCT116 p53+/+, 96 h, MTT, mean of at least 3 independent experiments, read-out: Mean IC50
  IC50: 496 nM
[4]; HCT116 p53+/+, mean of replicates, read-out: Mean IC50
  IC50: 496 nM
[4]; HCT116 p53+/+, read-out: Mean IC50 values
  IC50: 496 nM
[4]; IC50 ARPE-19 / IC50 HCT116 p53+/+
  Selectivity index (ARPE19): 106.11 and 106.2
[4]; IC50 MCF10A / IC50 HCT116 p53+/+
  Selectivity index (MCF10A): 97.30
[4]; IC50 NP1 / IC50 HCT116 p53+/+
  Selectivity Index using the NPI non-cancer cell line: 86.88
[4]; mean IC50 ARPE-19 / mean IC50 HCT116 p53+/+
  SI (ARPE19): 106.11
[4]; mean IC50 MCF10A / mean IC50 HCT116 p53+/+
  SI (MCF10A): 97.30
[4]; mean IC50 NP1 / mean IC50 HCT116 p53+/+
  SI (NPI): 86.88
[4]; ratio of IC50, HCT116 p53+/+
  Relative potency (+ anion to no anion), Ratio + anion:no anion: 1
[4]; ratio of SI (ARPE-19), HCT116 p53+/+
  Selectivity indices relative to ARPE-19, Ratio + anion:no anion: 1
[4]; ratio of SI (MCF 10A), HCT116 p53+/+
  Selectivity indices relative to MCF10A, Ratio + anion:no anion: 1
[5]; HCT116 p53-/-, 96 h, MTT, individual run, read-out: IC50 values for each replicate
  IC50: 238 nM and 90 nM and 189 nM and 87 nM and 67 nM and 155 nM
[5]; HCT116 p53-/-, 96 h, MTT, mean of at least 3 independent experiments, read-out: Mean IC50
  IC50: 137 nM
[5]; HCT116 p53-/-, mean of replicates, read-out: Mean IC50
  IC50: 137 nM
[5]; HCT116 p53-/-, read-out: Mean IC50 values
  IC50: 137 nM
[5]; IC50 ARPE-19 / IC50 HCT116 p53-/-
  Selectivity index (ARPE19): 384.16 and 384.82
[5]; IC50 MCF10A / IC50 HCT116 p53-/-
  Selectivity index (MCF10A): 352.26
[5]; IC50 NP1 / IC50 HCT116 p53-/-
  Selectivity Index using the NPI non-cancer cell line: 314.53
[5]; mean IC50 ARPE-19 / mean IC50 HCT116 p53-/-
  SI (ARPE19): 384.16
[5]; mean IC50 MCF10A / mean IC50 HCT116 p53-/-
  SI (MCF10A): 352.26
[5]; mean IC50 NP1 / mean IC50 HCT116 p53-/-
  SI (NPI): 314.53
[5]; ratio of IC50, HCT116 p53-/-
  Relative potency (+ anion to no anion), Ratio + anion:no anion: 1
[5]; ratio of SI (ARPE-19), HCT116 p53-/-
  Selectivity indices relative to ARPE-19, Ratio + anion:no anion: 1
[5]; ratio of SI (MCF 10A), HCT116 p53-/-
  Selectivity indices relative to MCF10A, Ratio + anion:no anion: 1
[6]; MCF10A non-cancer, read-out: Mean IC50 values
  IC50: 48300 nM
[6]; MCF10A, 96 h, MTT, individual run, read-out: IC50 values for each replicate
  IC50: 51900 nM and 58100 nM and 39000 nM and 43800 nM and 48500 nM
[6]; MCF10A, 96 h, MTT, mean of at least 3 independent experiments, read-out: Mean IC50
  IC50: 48300 nM
[6]; MCF10A, mean of replicates, read-out: Mean IC50
  IC50: 48300 nM
[6]; ratio of IC50, MCF10A
  Relative potency (+ anion to no anion), Ratio + anion:no anion: 1
[7]; IC50 ARPE-19 / IC50 MiaPaCa2
  Selectivity index (ARPE19): 4.46
[7]; IC50 MCF10A / IC50 MiaPaCa2
  Selectivity index (MCF10A): 4.09
[7]; IC50 NP1 / IC50 MiaPaCa2
  Selectivity Index using the NPI non-cancer cell line: 3.65
[7]; MiaPaCa2, 96 h, MTT, individual run, read-out: IC50 values for each replicate
  IC50: 17100 nM and 6600 nM and 6320 nM and 5210 nM and 18000 nM and 17600 nM
[7]; MiaPaCa2, 96 h, MTT, mean of at least 3 independent experiments, listed as [L2Cu3]^6+, read-out: Mean IC50
  IC50: > 10000 nM
[7]; MiaPaCa2, 96 h, MTT, mean of at least 3 independent experiments, read-out: Mean IC50
  IC50: 11800 nM
[7]; MiaPaCa2, mean of replicates, read-out: Mean IC50
  IC50: 11800 nM
[7]; MiaPaCa2, read-out: Mean IC50 values
  IC50: 11800 nM
[7]; mean IC50 ARPE-19 / mean IC50 MiaPaCa2
  SI (ARPE19): 4.46
[7]; mean IC50 MCF10A / mean IC50 MiaPaCa2
  SI (MCF10A): 4.09
[7]; mean IC50 NP1 / mean IC50 MiaPaCa2
  SI (NPI): 3.65
[7]; ratio of IC50, MiaPaCa2
  Relative potency (+ anion to no anion), Ratio + anion:no anion: 1
[7]; ratio of SI (ARPE-19), MiaPaCa2
  Selectivity indices relative to ARPE-19, Ratio + anion:no anion: 1
[7]; ratio of SI (MCF 10A), MiaPaCa2
  Selectivity indices relative to MCF10A, Ratio + anion:no anion: 1

Reference: PMC8222254, “Self-assembly of an anion receptor with metal-dependent kinase inhibition and potent in vitro anti-cancer properties” (Nature Communications, 2021)
